According to patent US20190336496A1, “SELECTIVE BCL-2 INHIBITORS IN COMBINATION WITH AN ANTI-PD-1 OR AN ANTI-PD-L1 ANTIBODY FOR THE TREATMENT OF CANCERS” (AbbVie Inc., priority 2018, published 2019):

What was measured:
EMT6 tumors = assay: EMT6 mouse mammary carcinoma syngeneic model; type: in vivo; conditions: for complete responses (CR): EMT6, groups of 10 mice
Experimental: All experiments were conducted in compliance with the National Institutes of Health Guide for Care and Use of Laboratory Animals guidelines in a facility accredited by the Association for the Assessment and Accreditation of Laboratory Animal Care (AAALAC). BALB/c, C57BL/6, CB6F1 (C57BL/6 bred with BALB/c) and SCID mice were obtained from Charles River (Wilmington, Mass.). SCID mice have severe combined immune deficiency (SCID) and are characterized by an absence of functional T- and B-cells.
EMT6, mouse mammary carcinoma and CT26, mouse colon carcinoma, cell lines were obtained from ATCC (Manassas, Va.). MC38, mouse colon carcinoma cell line was obtained from National Cancer Institute (NCI).
Compound (I),venetoclax, was formulated in 10% ethanol+30% PEG 400+60% Phosal® 50PG. Venetoclax was administered orally once a day for 14 days at 50 mg/kg/day.
1×10^5 CT26, EMT6 or MC38 cells were subcutaneously injected with Matrigel into the flanks of BALB/c, CB6F1 or C57BL/6 mice, respectively. Seven days later, mice were randomized to treatment groups of vehicle, venetoclax, anti-PD-1/PD-L1 or the combination of venetoclax and anti-PD-1/PD-L1. Tumor volume was determined via measurements of the length (L) and width (W) of the tumor with electronic calipers and the volume was calculated according to the following equation: V=L×W2/2 using Study Director Version 2.1.11 (Studylog Systems Inc., South San Francisco). Complete response (CR) was defined as reduction in tumor volume to ≤25 mm^3 over at least 3 successive measurements.

[1] = system: CD4 T-cells co-cultured with MoDCs; assay: Mixed lymphocyte reaction (MLR) assay; type: cell-based, human; conditions: for CD3+ T cell numbers / production of IFNγ (secreted) / proportion of CD3+ T-cells that produce IFNγ: MLR, BCL-2 inhibitors at 1 μM
Experimental: Mixed Lymphocyte Reaction (MLR) assay was used to examine venetoclax effect on T-cell function in response to immune stimulation. Monocytic-derived dendritic cells (MoDCs) were generated from fresh human blood. PBMCs were isolated using a Ficoll gradient. The PBMCs were allowed to adhere for 2 hours. After 2 hours, cells in suspension were removed. Fresh AIM V™ medium (ThermoFisher cat. #12055091) supplemented with granulocyte-macrophage colony-stimulating factor (GM-CSF, 80 ng/mL) and IL-4 (50 ng/mL) was added to the culture. After 5 days, the MoDCs were stimulated with IL-1α and TNF-α (0.2 ng/mL each) for 48 hours to increase major histocompatibility complex class II molecules (MHCII) expression. These activated MoDCs were then co-cultured with CD4 T-cells (Biospecialty Corp.) at a ratio of 10:1 (T-cells:MoDCs) in a mixed lymphocyte reaction (MLR). The cells were treated with control IgG (Isotype) or anti-PD-1 antibody (nivolumab or ABBV-181 along with either dimethyl sulfoxide (DMSO) or BCL-2 inhibitors venetoclax (Compound (I)) or Compounds (II) or (III). Antibodies were added at 10 μg/mL and the compound concentrations of venetoclax were as indicated in FIG. 11. The MLR was cultured for 5 days, after which the cells were analyzed by flow cytometry using an LSRFortessa™ X-20 instrument (BD Biosciences) to determine cell number and functional cytokine (IFNγ) responses.

Row | Compound | CD3+ T cell numbers [1] | production of IFNγ (secreted) [1] | proportion of CD3+ T-cells that produce IFNγ [1] | other results
1 | anti hu PD-L1 YW243.55.S70 [mu IgG2 a/k]: mouse anti-PD-L1 antibody, heavy chain SEQ ID NO: 5, light chain SEQ ID NO: 6 |  |  |  | complete responses (CR) (EMT6 tumors): 3; complete responses (CR) (EMT6 tumors; listed as anti-PD-L1 antibody): 3/10; tumor growth inhibition (TGI) (EMT6 tumors; EMT6 in CB6F1 mice, venetoclax 50 mg/kg/day orally 14 days, antibody 10 mg/kg IP every 4 days, 3 times, day 25): 89%
2 | O=C(c1cc(-c2cc3c(cc2C(=O)N2Cc4ccccc4C[C@H]2CN2CCOCC2)OCO3)n2c1CCCC2)N(c1ccccc1)c1ccc(O)cc1 [Compound (III)] | declined comparably | not antagonized | increase | 
3 | Cn1ccc2cc(N(C(=O)c3cc(-c4cc5c(cc4C(=O)N4Cc6ccccc6C[C@H]4CN4CCOCC4)OCO5)n4c3CCCC4)c3ccc(O)cc3)ccc21 [Compound (II)] | declined comparably | not antagonized | increase | 
4 | nivolumab: anti-PD-1 antibody, heavy chain SEQ ID NO: 9, light chain SEQ ID NO: 10 |  |  |  | proportion of CD4+ T-cells that produce IFNγ ([1]; MLR 5 days, with isotype control or anti-PD-1 antibody): increased; number of CD4+ T-cells ([1]; MLR cultured 5 days, antibodies at 10 μg/mL): increased
